One may read the IC50 as the midpoint of a concentration-inhibition curve.

The structures appear in SMILES notation.

The assay concerns the target T1, Calpain-1 catalytic subunit (Homo sapiens, UniProt P07384).
T1 sequence (P07384 whole entry): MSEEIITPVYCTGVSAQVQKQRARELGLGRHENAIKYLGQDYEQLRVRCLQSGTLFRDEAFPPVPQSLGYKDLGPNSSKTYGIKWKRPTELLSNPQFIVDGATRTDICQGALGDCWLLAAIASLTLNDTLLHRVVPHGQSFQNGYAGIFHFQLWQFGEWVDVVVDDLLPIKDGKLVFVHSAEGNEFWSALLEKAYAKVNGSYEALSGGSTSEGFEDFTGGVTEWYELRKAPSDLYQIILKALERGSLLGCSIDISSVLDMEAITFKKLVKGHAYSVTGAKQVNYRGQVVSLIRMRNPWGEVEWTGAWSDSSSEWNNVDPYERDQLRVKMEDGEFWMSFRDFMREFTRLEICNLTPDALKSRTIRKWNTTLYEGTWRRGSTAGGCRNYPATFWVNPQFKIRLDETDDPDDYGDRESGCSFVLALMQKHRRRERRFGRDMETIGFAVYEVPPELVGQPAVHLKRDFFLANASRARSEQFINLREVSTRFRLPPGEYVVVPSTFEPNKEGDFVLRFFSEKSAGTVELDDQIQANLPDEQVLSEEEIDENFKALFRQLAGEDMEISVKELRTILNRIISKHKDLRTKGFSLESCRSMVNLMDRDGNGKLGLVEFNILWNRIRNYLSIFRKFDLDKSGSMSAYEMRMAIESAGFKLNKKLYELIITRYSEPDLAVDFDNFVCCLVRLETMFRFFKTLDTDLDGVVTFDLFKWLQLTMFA
The assay is described as follows: Inhibition of human erythrocytes mu-calpain by spectrofluorimeter.
`CNC(=O)C(=O)[C@H](Cc1ccccc1)NC(=O)c1[nH]c(=O)ccc1C` yielded a 50% inhibitory concentration (IC50) of 91.4 µM. That is a double-digit micromolar value.
As for `CCNC(=O)C(=O)[C@H](Cc1ccccc1)NC(=O)c1[nH]c(=O)ccc1C`, the figure is 40.2 µM; as for `Cc1ccc(=O)[nH]c1C(=O)N[C@@H](Cc1ccccc1)C(=O)C(=O)NC(C)C`, > 100 µM.
As for `Cc1ccc(=O)[nH]c1C(=O)N[C@@H](Cc1ccccc1)C(=O)C(=O)NCc1ccccc1`, the figure is 64.6 µM.
Regarding `Cc1ccc(=O)[nH]c1C(=O)N[C@@H](Cc1ccccc1)C(=O)C(=O)NCc1ccc(F)cc1`, the half-maximal inhibitory concentration (IC50) was found to be 22.1 µM.
Regarding `Cc1ccc(=O)[nH]c1C(=O)N[C@@H](Cc1ccccc1)C(=O)C(=O)NCCc1ccccc1`, 7.41 µM corresponded to half-maximal inhibition (IC50).
Compound `COc1ccc(CCNC(=O)C(=O)[C@H](Cc2ccccc2)NC(=O)c2[nH]c(=O)ccc2C)cc1` showed a half-inhibitory concentration (IC50) of 6.19 µM.
As for `COc1ccc(CNC(=O)C(=O)[C@H](Cc2ccccc2)NC(=O)c2[nH]c(=O)ccc2C)cc1`, the figure is 6.19 µM.
The value for `Cc1ccc(=O)[nH]c1C(=O)N[C@@H](Cc1ccccc1)C(=O)C(=O)NCCc1ccccn1` was 34 µM; that for `Cc1ccc(=O)[nH]c1C(=O)N[C@@H](Cc1ccccc1)C(=O)C(N)=O` was 2.81 µM; that for `COc1ccc(CNC(=O)C(=O)[C@H](Cc2ccccc2)NC(=O)c2[nH]c(=O)ccc2C)cc1OC` was 35.3 µM.
Consider `Cc1ccc(=O)[nH]c1C(=O)N[C@@H](Cc1ccccc1)C(=O)C(=O)NCc1ccccn1`, for which it took 84.8 µM to reach half-maximal inhibition (IC50).

(Values after ChEMBL document CHEMBL1138543, “Design and synthesis of calpain inhibitory 6-pyridone 2-carboxamide derivatives” (Eur J Med Chem, 2009).)
